# Source: ChEMBL document CHEMBL3638669, “Substituted 2-(chroman-6-yloxy)-thiazoles and their use as pharmaceuticals” (2014)
# Experiments:
# [1] = target: T1, Sodium/calcium exchanger 1 (Homo sapiens, UniProt P32418); assay: Forward Mode Assay: The assay is based on the monitoring of intracellular Ca2+concentrations using the PBX Calcium Assay Kit from BD (Becton, Dickinson and Company) with calcium indicator dye 51-9000177BKa (BD, 640177), CHO cells expressing NCX1 were loaded with the dye, and after a preincubation period with the test compound, lonomycin (Calbiochem, 407950) was added. Ionomycin is an ionophor for Ca2+ions mediating an increase of intracellular Ca2+ions. Consequently, intracellular Ca2+ions are exchanged against extracellular Na+ions (Ca2+efflux, forward mode). The decrease of intracellular Ca2+ions was detected by measuring the fluorescence of the calcium indicator dye at a wavelength of 520 nm by a FLIPR device.Briefly, similarly as for the reverse mode, for the forward mode transport assay 18000 cells per well were seeded into a 96 well microplate (Corning COSTAR 3904) and incubated overnight in culture medium (cf. above). A total volume of 100 ul medium per well was used.; format: cell-based
# T1 sequence (P32418 36-973 limits assumed): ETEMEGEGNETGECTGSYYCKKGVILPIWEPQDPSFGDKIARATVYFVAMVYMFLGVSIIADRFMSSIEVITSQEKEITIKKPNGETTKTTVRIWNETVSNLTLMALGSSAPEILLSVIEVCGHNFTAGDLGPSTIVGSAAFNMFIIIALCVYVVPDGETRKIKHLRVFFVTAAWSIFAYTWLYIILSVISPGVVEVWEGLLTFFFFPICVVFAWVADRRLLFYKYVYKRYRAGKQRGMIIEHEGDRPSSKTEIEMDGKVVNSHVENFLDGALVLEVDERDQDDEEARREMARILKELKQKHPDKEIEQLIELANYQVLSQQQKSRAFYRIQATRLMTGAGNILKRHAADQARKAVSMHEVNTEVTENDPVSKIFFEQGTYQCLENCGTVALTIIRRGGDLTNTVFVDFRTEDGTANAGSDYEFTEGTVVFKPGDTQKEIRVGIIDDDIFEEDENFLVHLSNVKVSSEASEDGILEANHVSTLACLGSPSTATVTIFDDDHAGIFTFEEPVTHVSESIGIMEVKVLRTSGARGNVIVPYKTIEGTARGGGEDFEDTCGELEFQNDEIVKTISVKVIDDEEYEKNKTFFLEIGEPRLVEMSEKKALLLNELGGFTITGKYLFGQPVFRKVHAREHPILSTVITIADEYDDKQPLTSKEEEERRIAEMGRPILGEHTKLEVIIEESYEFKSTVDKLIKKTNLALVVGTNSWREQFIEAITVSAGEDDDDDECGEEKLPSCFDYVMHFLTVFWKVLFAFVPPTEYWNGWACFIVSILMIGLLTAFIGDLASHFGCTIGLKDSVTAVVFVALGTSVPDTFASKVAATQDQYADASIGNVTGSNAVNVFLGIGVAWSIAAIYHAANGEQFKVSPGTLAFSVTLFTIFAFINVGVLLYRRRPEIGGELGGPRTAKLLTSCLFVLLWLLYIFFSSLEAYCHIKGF
# [2] = target: T1, Sodium/calcium exchanger 1; assay: Reverse Mode Assay: The assay is based on the monitoring of intracellular Ca2+concentrations using the calcium-sensitive dye Fluo-4. CHO cells expressing NCX1 were loaded with the dye by means of the acetoxymethyl ester Fluo-4 AM (Invitrogen, F14202), which is cleaved intracellularly by esterase activity to yield the charged species of free Fluo-4. After an preincubation period with the test compound, Gramicidine (Sigma, G5002) was added. Gramicidine is an ionophor for Na+ions mediating an increase of intracellular Na+ions. Consequently, intracellular Na+ions are exchanged against extracellular Ca2+ions (Ca2+influx, reverse mode). The intracellular elevation of Ca2+ ions was detected by measuring the fluorescence of Fluo-4 at a wavelength of 520 nm by a FLIPR device.Briefly, for the reverse mode transport assay 18000 cells per well were seeded into a 96 well microplate (Corning COSTAR 3904) and incubated overnight in culture medium (1x Nut Mix F12 (Ham) (Gibco, 21765-029); 10% (v/v) fetal calf serum.; format: cell-based
IC50 [1],SMILES,IC50 [2]
1900 nM,Cc1ccccc1C1CCc2cc(Oc3ncc(C(=O)NCc4ccnc(Cl)c4)s3)ccc2O1 (configuration not stated),–
–,NCCCNC(=O)c1cnc(Oc2ccc3c(c2)CC[C@@H](c2ccccc2)O3)s1,300 nM
